Measured values taken from US20050032854A1, “Insulin resistance improving agents” (priority 2001, published 2005).

System: spontaneously hypertensive rats (SHR)
Experiment: Insulin sensitivity evaluation by glucose clamp technique in spontaneously hypertensive rats (SHR)
Assay type: in vivo, rat
Conditions: for M-value (average glucose infusion rate, index of insulin sensitivity): n=10, vehicle 5.9±0.5
Experimental: For evaluation of insulin resistance, 23-week-old spontaneously hypertensive rats (SHR) were used. Vehicle (0.5% methyl cellulose solution administration) and compound A (0.3 and 1 mg/kg/day) were orally administered for 2 weeks, after which an insulin sensitivity evaluation test by a glucose clamp technique was performed. The rats were grouped such that each parameter was leveled based on the glucose level and plasma insulin value before start of the drug administration. SHR were fasted from the evening of the day before the operation of the glucose clamp technique.
The glucose clamp technique was performed according to the following procedures. The rats were anesthetized with pentobarbital sodium (50 mg/kg i.p.) and catheters [PR45 (trademark), NATUME SEISAKUSHO CO., LTD.] for blood collection, for intravenous injection of insulin [novolin R injection 40 (trademark), Novo Nordisk Pharma Ltd.] and for intravenous injection of glucose [Otsuka glucose injection 50% (trademark), Otsuka Pharmaceutical Co., Ltd.] were each placed in the right common carotid artery, left femoral vein and right femoral vein, respectively. The glucose level was measured using a simplified glucose meter [Advantage II (trademark), Roche Diagnostics Corporation]. Using a peristaltic pump [MINIPULS 3 (trademark), Gilson Company, Inc.], insulin was constantly infused continuously at an injection rate of 40 and 20 mU/kg/min for 5 and 3 min, respectively, to afford a high insulin state, and thereafter high insulin state was maintained at 8 mU/kg/min.. Glucose was constantly infused intravenously to maintain the range of initial value±10% of blood glucose, using a different peristaltic pump. […] Glucose was constantly infused for-90 min and an average of glucose infusion rate for the period of 40 min from 50 min to 90 min after the start of the infusion was calculated and used as an index showing the insulin sensitivity (M-value). […] For statistic analysis, Williams' test was used and significance was evaluated at a risk rate of less than 2.5%.

## CCOc1nc2cccc(C(=O)O)c2n1Cc1ccc(-c2ccccc2-c2nc(=O)o[nH]2)cc1 [compound A, 2-Ethoxy-1-[[2′-(5-oxo-2,5-dihydro-1,2,4-oxadiazol-3-yl)biphenyl-4-yl]methyl]-1H-benzimidazole-7-carboxylic acid]
0.3 mg/kg/day orally for 2 weeks
  M-value (average glucose infusion rate, index of insulin sensitivity): 7.8 ± 0.5 mg/kg/min
1 mg/kg/day orally for 2 weeks
  M-value (average glucose infusion rate, index of insulin sensitivity): 8.6 ± 0.6 mg/kg/min
0.3 and 1 mg/kg/day orally for 2 weeks
  insulin sensitivity enhancing effect: dose-dependent insulin sensitivity enhancing effect
